# Test results reported in the supplement of paper PMC10307832.
# Key:
# Assay in all cases: relative viability (nuclei count vs DMSO), 5 days (fraction); higher = more cells survive
# UMC-11 = system: UMC-11
# Procedure, shortened: (§1)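 After 5 days of treatment, lung cancer cells in 1536-well plates were fixed and stained in a single step (final 0.05% Triton X-100, 1% formaldehyde, 1 ug/ml Hoechst) and their nuclei counted on 4× images. Treatment had been applied by pin tool the day after seeding as one drug alone or as a fixed anchor-drug dose with five library-drug doses (not always all listed) in √10 steps. Relative viability is the nuclei count of treated wells divided by that of vehicle wells, and values are medians of duplicate plates.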
# EPLC-272H = system: EPLC-272H
# Procedure, shortened: as §1
# NCI-H2405 = system: NCI-H2405
# Procedure, shortened: as §1
# HCC-78 = system: HCC-78
# Procedure, shortened: as §1
# NCI-H661 = system: NCI-H661
# Procedure, shortened: as §1
# NCI-H1975 = system: NCI-H1975
# Procedure, shortened: as §1
# NCI-H1395 = system: NCI-H1395
# Procedure, shortened: as §1
# NCI-H2023 = system: NCI-H2023
# Procedure, shortened: as §1
# NCI-H2085 = system: NCI-H2085
# Procedure, shortened: as §1
# NCI-H1437 = system: NCI-H1437
# Procedure, shortened: as §1
# COR-L 105 = system: COR-L 105
# Procedure, shortened: as §1
compound,measurement,setting,value
O=c1[nH]c2ccccc2n1C1CCN(CCCC(c2ccc(F)cc2)c2ccc(F)cc2)CC1 [Pimozide] + Cc1cc(Nc2cc(N3CCN(C)CC3)nc(Sc3ccc(NC(=O)C4CC4)cc3)n2)n[nH]1 [Tozasertib] (partner 0.1 µM),relative viability,UMC-11; first compound 0.08 µM,0.188
same,relative viability,UMC-11; first compound 0.253 µM,0.201
same,relative viability,UMC-11; first compound 0.8 µM,0.205
same,relative viability,UMC-11; first compound 2.53 µM,0.205
same,relative viability,UMC-11; first compound 8 µM,0.205
same,relative viability,EPLC-272H; first compound 0.08 µM,0.193
same,relative viability,EPLC-272H; first compound 0.253 µM,0.241
same,relative viability,EPLC-272H; first compound 0.8 µM,0.33
same,relative viability,EPLC-272H; first compound 2.53 µM,0.176
same,relative viability,EPLC-272H; first compound 8 µM,0.189
same,relative viability,NCI-H2405; first compound 0.08 µM,0.754
same,relative viability,NCI-H2405; first compound 0.253 µM,0.712
same,relative viability,NCI-H2405; first compound 0.8 µM,0.683
same,relative viability,NCI-H2405; first compound 2.53 µM,0.673
same,relative viability,NCI-H2405; first compound 8 µM,0.575
same,relative viability,HCC-78; first compound 0.08 µM,0.336
same,relative viability,HCC-78; first compound 0.8 µM,0.319
same,relative viability,HCC-78; first compound 2.53 µM,0.371
same,relative viability,HCC-78; first compound 8 µM,0.327
same,relative viability,NCI-H661; first compound 0.08 µM,0.354
same,relative viability,NCI-H661; first compound 0.253 µM,0.376
same,relative viability,NCI-H661; first compound 0.8 µM,0.339
same,relative viability,NCI-H661; first compound 2.53 µM,0.35
same,relative viability,NCI-H661; first compound 8 µM,0.316
same,relative viability,NCI-H1975; first compound 0.08 µM,0.766
same,relative viability,NCI-H1975; first compound 0.253 µM,0.67
same,relative viability,NCI-H1975; first compound 0.8 µM,0.717
same,relative viability,NCI-H1975; first compound 2.53 µM,0.618
same,relative viability,NCI-H1975; first compound 8 µM,0.714
same,relative viability,NCI-H1395; first compound 0.08 µM,0.846
same,relative viability,NCI-H1395; first compound 0.253 µM,0.8
same,relative viability,NCI-H1395; first compound 0.8 µM,0.617
same,relative viability,NCI-H1395; first compound 2.53 µM,0.716
same,relative viability,NCI-H1395; first compound 8 µM,0.676
same,relative viability,NCI-H2023; first compound 0.08 µM,0.352
same,relative viability,NCI-H2023; first compound 0.253 µM,0.314
same,relative viability,NCI-H2023; first compound 0.8 µM,0.454
same,relative viability,NCI-H2023; first compound 2.53 µM,0.228
same,relative viability,NCI-H2023; first compound 8 µM,0.237
same,relative viability,NCI-H2085; first compound 0.08 µM,0.793
same,relative viability,NCI-H2085; first compound 0.253 µM,0.82
same,relative viability,NCI-H2085; first compound 0.8 µM,0.704
same,relative viability,NCI-H2085; first compound 2.53 µM,0.844
same,relative viability,NCI-H2085; first compound 8 µM,0.736
same,relative viability,NCI-H1437; first compound 0.08 µM,0.397
same,relative viability,NCI-H1437; first compound 0.253 µM,0.389
same,relative viability,NCI-H1437; first compound 0.8 µM,0.35
same,relative viability,NCI-H1437; first compound 2.53 µM,0.362
same,relative viability,NCI-H1437; first compound 8 µM,0.341
same,relative viability,COR-L 105; first compound 0.253 µM,0.327
same,relative viability,COR-L 105; first compound 0.8 µM,0.367
same,relative viability,COR-L 105; first compound 2.53 µM,0.301
same,relative viability,COR-L 105; first compound 8 µM,0.239
